From ChEMBL document CHEMBL3885861, “Open TG-GATES”

Species on record: Rattus norvegicus
Experiment: Open TG-GATES - Regimen: Single
Type: toxicity, organism-based, Sprague-Dawley
Set-up: regimen Single, gender Male, age 6 weeks
Details: in vivo, ip, 1500 mg/kg, route intraperitoneal injection, dose level High; for APTT / Bas / Eos / Fbg / Hb / Ht / Lym / MCH / MCHC / MCV / Mono / Neu / PT / Plat / RBC / Ret / WBC: tissue Blood; for KIDNEY_L / KIDNEY_R / KIDNEY_TOTAL: tissue Kidney; for LIVER: tissue Liver; for A/G / ALP / ALT / AST / BUN / CRE / Ca / Cl / DBIL / GLC / IP / K / LDH / Na / PL / RALB / TBIL / TC / TG / TP / gamma-GTP: tissue Plasma

Structure (SMILES): CCCCS(=N)(=O)CCC(N)C(=O)O (configuration not stated) [BUTHIONINE SULFOXIMINE]
- TERMINAL_BW (3 h): 213.4 g
- APTT (3 h): 16 s
- Bas (3 h): 0%
- Eos (3 h): 1%
- Fbg (3 h): 216.4 mg/dL
- Hb (3 h): 13.2 g/dL
- Ht (3 h): 39.5%
- Lym (3 h): 61.4%
- MCH (3 h): 21.6 pg
- MCHC (3 h): 33.4%
- MCV (3 h): 64.7 fL
- Mono (3 h): 9.2%
- Neu (3 h): 29%
- PT (3 h): 12 s
- Plat (3 h): 119.7 x10_4/uL
- RBC (3 h): 610.4 x10_4/ul
- Ret (3 h): 8.8%
- WBC (3 h): 106.8 x10_2/uL
- KIDNEY_L (3 h): 0.9 g
- KIDNEY_R (3 h): 1 g
- KIDNEY_TOTAL (3 h): 1.9 g
- LIVER (3 h): 10.1 g
- A/G (3 h): 2.2
- ALP (3 h): 832 IU/L
- ALT (3 h): 43.4 IU/L
- AST (3 h): 48 IU/L
- BUN (3 h): 15.2 mg/dL
- CRE (3 h): 0.4 mg/dL
- Ca (3 h): 10.9 mg/dL
- Cl (3 h): 104.8 meq/L
- DBIL (3 h): 0.066 mg/dL
- GLC (3 h): 191.2 mg/dL
- IP (3 h): 9.8 mg/dL
- K (3 h): 4.5 meq/L
- LDH (3 h): 89.2 IU/L
- Na (3 h): 138.8 meq/L
- PL (3 h): 137.8 mg/dL
- RALB (3 h): 3.8 g/dL
- TBIL (3 h): 0.3 mg/dL
- TC (3 h): 70.2 mg/dL
- TG (3 h): 57.8 mg/dL
- TP (3 h): 5.5 g/dL
- gamma-GTP (3 h): 1 IU/L
- TERMINAL_BW (6 h): 215.9 g
- APTT (6 h): 16.4 s
- Bas (6 h): 0%
- Eos (6 h): 0.8%
- Fbg (6 h): 218.6 mg/dL
- Hb (6 h): 13.3 g/dL
- Ht (6 h): 39.6%
- Lym (6 h): 67.2%
- MCH (6 h): 22 pg
- MCHC (6 h): 33.6%
- MCV (6 h): 65.5 fL
- Mono (6 h): 6.6%
- Neu (6 h): 25.6%
- PT (6 h): 10.8 s
- Plat (6 h): 124.2 x10_4/uL
- RBC (6 h): 605 x10_4/ul
- Ret (6 h): 8.3%
- WBC (6 h): 104.4 x10_2/uL
- KIDNEY_L (6 h): 0.9 g
- KIDNEY_R (6 h): 1 g
- KIDNEY_TOTAL (6 h): 1.9 g
- LIVER (6 h): 9 g
- A/G (6 h): 1.9
- ALP (6 h): 696.6 IU/L
- ALT (6 h): 31 IU/L
- AST (6 h): 56.2 IU/L
- BUN (6 h): 11.6 mg/dL
- CRE (6 h): 0.7 mg/dL
- Ca (6 h): 10.9 mg/dL
- Cl (6 h): 104.6 meq/L
- DBIL (6 h): 0.004 mg/dL
- GLC (6 h): 189.2 mg/dL
- IP (6 h): 10 mg/dL
- K (6 h): 4.5 meq/L
- LDH (6 h): 107.8 IU/L
- Na (6 h): 140 meq/L
- PL (6 h): 138.6 mg/dL
- RALB (6 h): 3.5 g/dL
- TBIL (6 h): 0.3 mg/dL
- TC (6 h): 80.8 mg/dL
- TG (6 h): 46.4 mg/dL
- TP (6 h): 5.4 g/dL
- gamma-GTP (6 h): 1.6 IU/L
- TERMINAL_BW (9 h): 211.3 g
- APTT (9 h): 17.8 s
- Bas (9 h): 0%
- Eos (9 h): 0.8%
- Fbg (9 h): 255.4 mg/dL
- Hb (9 h): 13.6 g/dL
- Ht (9 h): 40.4%
- Lym (9 h): 57.4%
- MCH (9 h): 21.8 pg
- MCHC (9 h): 33.7%
- MCV (9 h): 64.8 fL
- Mono (9 h): 5.2%
- Neu (9 h): 36.6%
- PT (9 h): 11.3 s
- Plat (9 h): 119.4 x10_4/uL
- RBC (9 h): 623.4 x10_4/ul
- Ret (9 h): 8.2%
- WBC (9 h): 103.7 x10_2/uL
- KIDNEY_L (9 h): 1 g
- KIDNEY_R (9 h): 1 g
- KIDNEY_TOTAL (9 h): 1.9 g
- LIVER (9 h): 8.6 g
- A/G (9 h): 1.9
- ALP (9 h): 782.6 IU/L
- ALT (9 h): 27 IU/L
- AST (9 h): 47.4 IU/L
- BUN (9 h): 12.2 mg/dL
- CRE (9 h): 0.5 mg/dL
- Ca (9 h): 11.3 mg/dL
- Cl (9 h): 106.2 meq/L
- DBIL (9 h): 0.012 mg/dL
- GLC (9 h): 202.4 mg/dL
- IP (9 h): 9.2 mg/dL
- K (9 h): 4.9 meq/L
- LDH (9 h): 89.4 IU/L
- Na (9 h): 138.6 meq/L
- PL (9 h): 137.6 mg/dL
- RALB (9 h): 3.7 g/dL
- TBIL (9 h): 0.3 mg/dL
- TC (9 h): 80.8 mg/dL
- TG (9 h): 37.6 mg/dL
- TP (9 h): 5.6 g/dL
- gamma-GTP (9 h): 1.4 IU/L
- TERMINAL_BW (24 h): 224.8 g
- APTT (24 h): 16.6 s
- Bas (24 h): 0%
- Eos (24 h): 1.4%
- Fbg (24 h): 273.2 mg/dL
- Hb (24 h): 13.3 g/dL
- Ht (24 h): 39.7%
- Lym (24 h): 73.8%
- MCH (24 h): 21.7 pg
- MCHC (24 h): 33.5%
- MCV (24 h): 64.8 fL
- Mono (24 h): 7.2%
- Neu (24 h): 17.8%
- PT (24 h): 11.7 s
- Plat (24 h): 119.6 x10_4/uL
- RBC (24 h): 613.4 x10_4/ul
- Ret (24 h): 9.3%
- WBC (24 h): 98.2 x10_2/uL
- KIDNEY_L (24 h): 1 g
- KIDNEY_R (24 h): 1 g
- KIDNEY_TOTAL (24 h): 2 g
- LIVER (24 h): 10.5 g
- A/G (24 h): 1.8
- ALP (24 h): 1035 IU/L
- ALT (24 h): 29.4 IU/L
- AST (24 h): 52.6 IU/L
- BUN (24 h): 19 mg/dL
- CRE (24 h): 0.5 mg/dL
- Ca (24 h): 11.3 mg/dL
- Cl (24 h): 104.2 meq/L
- DBIL (24 h): 0.024 mg/dL
- GLC (24 h): 205 mg/dL
- IP (24 h): 8.7 mg/dL
- K (24 h): 4.7 meq/L
- LDH (24 h): 104.8 IU/L
- Na (24 h): 139 meq/L
- PL (24 h): 143.6 mg/dL
- RALB (24 h): 3.7 g/dL
- TBIL (24 h): 0.3 mg/dL
- TC (24 h): 81.6 mg/dL
- TG (24 h): 67.4 mg/dL
- TP (24 h): 5.8 g/dL
- gamma-GTP (24 h): 1.4 IU/L
